From ChEMBL document CHEMBL3137667, “[Drug-induced liver injury; fourteenth updated edition of the bibliographic database of liver injuries and related drugs]” (Gastroenterol Clin Biol, 2004)

Experiments:
[1] = Highest frequency of moderate liver toxicity observed during clinical trials, expressed as a percentage. [column '% BIOL' in source]; conditions: human
[2] = Highest frequency of acute liver toxicity observed during clinical trials, expressed as a percentage. [column '% AIGUE' in source]; conditions: human
[3] = human, serum
[4] = human, serum; remark: listed apart in the source
[5] = human
[6] = human; remark: listed apart in the source
[7] = human; remark: listed apart in the source
[8] = human, serum, 4383 h
[9] = human; remark: listed apart in the source
[10] = human; remark: listed apart in the source
[11] = human; remark: listed apart in the source
[12] = human; remark: listed apart in the source
[13] = human; remark: listed apart in the source
[14] = human; remark: listed apart in the source
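Throughout, for Hepatotoxicity (association with vascular disease): count of indexed literature references reporting vascular liver injury in humans, e.g. peliosis hepatitis, hepatic veno-occlusive disease or Budd-Chiari syndrome.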
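Throughout, for Hepatotoxicity (benign tumour): value is a count of indexed literature references citing a benign tumour confirmed by histopathology.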
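Throughout, for Hepatotoxicity (choleostasis): human cholestatic liver injury, shown by histopathology or by peak ALT or AST elevation over alkaline phosphatase ratio below 2, value counts indexed literature reports.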
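Throughout, for Hepatotoxicity (chronic liver disease): chronic liver injury confirmed by histopathology or persistently raised serum aminotransferase activity beyond 6 months, value given as the count of indexed literature references.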
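Throughout, for Hepatotoxicity (cirrhosis): value is a count of indexed literature references reporting cirrhosis confirmed by histopathology.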
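Throughout, for Hepatotoxicity (cytolytic): human cytolytic liver injury, shown by histopathology or by a ratio above 5 of peak ALT or AST elevation to alkaline phosphatase elevation, value counts indexed references.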
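Throughout, for Hepatotoxicity (granulomatous hepatitis): value is a count of indexed literature references reporting granulomatous liver disease confirmed by histopathology.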
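Throughout, for Hepatotoxicity (malignant tumour): malignant tumour confirmed by histopathology, value gives the count of indexed literature references reporting it.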
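Throughout, for Hepatotoxicity (severe hepatitis): human clinical data: severe hepatitis, meaning potentially life-threatening liver failure or clinically observed cases, the value counts how many indexed literature references report it.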
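Throughout, for Hepatotoxicity (steatosis): steatosis confirmed by histopathology, value is the count of indexed references.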

SMILES | Hepatotoxicity (moderate) [1] [%] | Hepatotoxicity (acute) [2] [%] | Hepatotoxicity (moderate) [3] | Hepatotoxicity (acute) [4] | Hepatotoxicity (cytolytic) [5] | Hepatotoxicity (choleostasis) [6] | Hepatotoxicity (severe hepatitis) [7] | Hepatotoxicity (chronic liver disease) [8] | Hepatotoxicity (cirrhosis) [9] | Hepatotoxicity (granulomatous hepatitis) [10] | Hepatotoxicity (association with vascular disease) [11] | Hepatotoxicity (steatosis) [12] | Hepatotoxicity (malignant tumour) [13] | Hepatotoxicity (benign tumour) [14]
Fc1ccc(C(c2ccc(F)cc2)N2CCN(C/C=C/c3ccccc3)CC2)cc1 [FLUNARIZINE] | 1.4 | 0 | 1 | 0 | 0 | 0 | 0 | 0 | 0 | 0 | 0 | 0 | 0 | 0
CCOP(=O)(OCC)C(C)NC(=O)N(CCCl)N=O (stereo unspecified) [FOTEMUSTINE] | 30.8 | 0 | 9 | 1 | 0 | 0 | 0 | 0 | 0 | 0 | 0 | 0 | 0 | 0
CCN(CC)CC(=O)Oc1ccc(NC(C)=O)cc1 [PROPACETAMOL] | 2.1 | 0 | 1 | 0 | 0 | 0 | 0 | 0 | 0 | 0 | 0 | 0 | 0 | 0
COc1cccc2c1C(=O)c1c(O)c3c(c(O)c1C2=O)C[C@@](O)(C(=O)CO)C[C@@H]3O[C@H]1C[C@H](N)[C@H](O[C@@H]2CCCCO2)[C@H](C)O1 [PIRARUBICIN] | 1.1 | 0 | 1 | 0 | 0 | 0 | 0 | 0 | 0 | 0 | 0 | 0 | 0 | 0
COc1ccc(-n2nc(CCC(=O)N(C)O)cc2-c2ccc(Cl)cc2)cc1 [TEPOXALIN] | 2.5 | 0 | 1 | 0 | 0 | 0 | 0 | 0 | 0 | 0 | 0 | 0 | 0 | 0
CC1CCN(CCCC(=O)c2ccc(F)cc2)CC1 [MELPERONE] | 12 | 0 | 2 | 0 | 0 | 0 | 0 | 0 | 0 | 0 | 0 | 0 | 0 | 0
O=C(O)Cc1nn(Cc2nc3cc(C(F)(F)F)ccc3s2)c(=O)c2ccccc12 [ZOPOLRESTAT] | 11.6 | 0 | 1 | 0 | 0 | 0 | 0 | 0 | 0 | 0 | 0 | 0 | 0 | 0
CN(C)CCCN1c2ccccc2C(C)(C)c2ccccc21 [DIMETACRINE] | 0 | 0 | 1 | 0 | 0 | 0 | 0 | 0 | 0 | 0 | 0 | 0 | 0 | 0
CC[N+](C)(C/C=C/C1=C(C(=O)[O-])N2C(=O)[C@@H](NC(=O)/C(=N\OCF)c3nsc(N)n3)[C@H]2SC1)CC(N)=O (stereo partly specified) | 37.5 | 0 | 51 | 0 | 0 | 0 | 0 | 0 | 0 | 0 | 0 | 0 | 0 | 0
